Reference: patent US8710055B2, “Triazolylphenyl sulfonamides as serine/threonine kinase inhibitors” (Boehringer Ingelheim International GmbH, priority 2010, dated 2014)

The compounds below were run on SK-MEL-28 cells (B-RAF V600E mutated) (assay: Inhibition of the proliferation of cultivated human melanoma cells (SK-MEL-28), AlamarBlue). Details: 72 h incubation.
Format: cell-based
Experimental: Measurement of the Inhibition of the Proliferation of Cultivated Human Melanoma Cells (SK-MEL-28, B-RAF^[…] Mutated)
For measuring the proliferation of cultivated human tumour cells, cells of the melanoma cell line SK-MEL-28 [from American Type Culture Collection (ATCC)] are cultivated in MEM medium, supplemented with 10% foetal calf serum, 2% sodium bicarbonate, 1 mM sodium pyruvate, 1% non-essential amino acids (e.g. from Cambrex, # BE13-114E) and 2 mM glutamine. SK-MEL-28 cells are placed in 96-well flat bottomed dishes in a density of 2500 cells per well in supplemented MEM medium (see above) and incubated overnight in an incubator (at 37° C. and 5% CO2). The active substances are added to the cells in different concentrations, so that a concentration range of 50 μM to 3.2 nM is covered. If necessary the initial concentration of 50 μM is changed to 10 μM or 2 μM and further dilution is carried out accordingly (up to 0.6 nM or 0.12 nM). After an incubation period of a further 72 h 20 μL AlamarBlue reagent (Serotec Ltd., # BUF012B) are added to each well and the cells are incubated for a further 3-6 h. The colour change of the AlamarBlue reagent is determined in a fluorescence spectrophotometer (e.g. Gemini, Molecular Devices). EC50 values are calculated using a software program (GraphPadPrizm).
`COc1cncc(-c2cn(-c3c(F)ccc(NS(=O)(=O)c4ccco4)c3F)nn2)c1` [Example I-47] showed an EC50 of 159 nM.
In the case of `COc1cncc(-c2cn(-c3c(F)ccc(NS(=O)(=O)c4cccnc4)c3F)nn2)c1` [Example I-42], the EC50 is reported as 292 nM.
With `CCCS(=O)(=O)Nc1ccc(F)c(-n2cc(-c3cncc(N(C)CCOC)c3)nn2)c1F` [Example I-30] the EC50 was 1230 nM.
`CCCS(=O)(=O)Nc1ccc(F)c(-n2cc(-c3ccc(N)nc3)nn2)c1F` [Example I-5] gave an EC50 of 1640 nM.
`CCCS(=O)(=O)Nc1ccc(F)c(-n2cc(-c3cncc(N4CCN(C5CC5)CC4)c3)nn2)c1Cl` [Example I-65] showed an EC50 of 32 nM.
